{
  "source": "patent US20090155828A1",
  "about": "“METHODS OF DETECTING PROSTATE CANCER” (The Burnham Institute for Medical Research, priority 2001, published 2009)",
  "key": {"[1]": {"tested_on": "tumor cells in culture", "details": "cited from earlier work; for Apoptosis of tumor cells: tumor / cancer cells in culture"}, "[2]": {"tested_on": "NAPH mRNA", "assay": "NAPH mRNA level in DHT treated LNCaP cells by real time PCR", "type": "cell-based, human", "details": "100 nM DHT", "protocol": "(§1) The serine hydrolase activity levels in the four prostate cell lines, or the change in serine hydrolase activity with DHT treatment, as assessed by fp-PEG-Tamra, was compared to the mRNA level of the cognate enzymes. Total RNA was isolated with Trizol (Life Technologies) from LNCaP, LNCaP treated with DHT, DU-145, PC-3 or PrEC cell lines. Reverse transcription was performed with Superscript II. Real time PCR was performed using the Roche SYBER Green DNA kit and a Roche LightCycler according to manufacturer instructions. Primers (20mers) were used at a final concentration of […], and 45 cycles were used."}, "[3]": {"tested_on": "N-acyl peptide hydrolase (NAPH)", "assay": "N-acyl peptide hydrolase activity in DHT treated LNCaP cells, fp-PEG-Tamra profile", "type": "cell-based, human", "details": "100 nM DHT, six days", "protocol": "(§2) Serine hydrolase activity profiles of the prostate cell lines were measured using the labeled fluorophosphonate probe fp-PEG-Tamra. Briefly, 40 μg of either the soluble or insoluble fractions were treated with 2 μM fp-PEG-Tamra for 1 hr at RT. The labeling reactions were stopped by the addition of Laemmli buffer followed by boiling for 5 min. As a control for non-specific reaction of the probe, a duplicate sample was boiled for 10 min prior to labeling with fp-PEG-Tamra. The labeled samples were resolved by 10% SDS-PAGE and visualized by scanning with a laser at 605 nm.\n(§3) It is well established that androgen (DHT) specifically, promotes proliferation of LNCaP cells in vitro. While the direct cause for this is not completely understood, it is clear that changes in gene and protein levels are associated with proliferation. As such, it was hypothesized that androgen treatment of LNCaP cells would change the aggregate activity profile. […] LNCaP cell proliferation was measured in the presence of either 0.1 nM or 100 nM DHT. […] Cells were counted using a hemocytometer. On day six, the aggregate serine hydrolase activity profiles were also measured. […] Specific labeling was assessed by comparison to a preheated control."}, "[4]": {"tested_on": "fatty acid synthase (FAS)", "assay": "Fatty acid synthase activity in DHT treated LNCaP cells, fp-PEG-Tamra profile", "type": "cell-based, human", "details": "six days", "protocol": "as §2, §3"}, "[5]": {"tested_on": "PSA mRNA", "assay": "PSA mRNA level in DHT treated LNCaP cells by real time PCR", "type": "cell-based, human", "protocol": "as §1"}, "[6]": {"tested_on": "PEP mRNA", "assay": "PEP mRNA level in DHT treated LNCaP cells by real time PCR", "type": "cell-based, human", "details": "100 nM DHT", "protocol": "as §1"}, "[7]": {"tested_on": "LNCaP cells", "assay": "Androgen effects on LNCaP cell proliferation", "type": "cell-based, human", "details": "six days", "protocol": "LNCaP cell proliferation was measured in the presence of either 0.1 nM or 100 nM DHT. Cells were plated in 24 well plates in RPMI 1640 with no phenol red and supplemented with charcoal stripped FBS and allowed to adhere overnight. The following day media was replaced, with or without DHT, and cells were grown for six days with media change every second day. Cells were counted using a hemocytometer.\nIn order to assess the effects of androgen (DHT) treatment on cell proliferation, LNCaP cells were plated in either 150 mm dishes (Falcon) or in 12 well tissue culture plates (Falcon) in complete medium. After 24 hr, the medium was replaced with RPMI containing no phenol red and supplemented with 10% charcoal stripped fetal bovine serum and the appropriate concentration of DHT. The medium was replaced every 48 hr for six days. At the indicated time points, the cells were removed by treatment with trypsin-EDTA and counted with a hemocytometer.\nIt is well established that androgen (DHT) specifically, promotes proliferation of LNCaP cells in vitro. […] LNCaP cell proliferation was measured in the presence of either 0.1 nM or 100 nM DHT. […] Cells were counted using a hemocytometer. On day six, the aggregate serine hydrolase activity profiles were also measured. […] Specific labeling was assessed by comparison to a preheated control."}, "[8]": {"tested_on": "PSA", "assay": "PSA activity in DHT treated LNCaP cells, fp-PEG-Tamra profile", "type": "cell-based, human", "details": "six days", "protocol": "as §2, §3"}, "[9]": {"tested_on": "prolyl endopeptidase (PEP)", "assay": "Prolyl endopeptidase activity in DHT treated LNCaP cells, fp-PEG-Tamra profile", "type": "cell-based, human", "details": "six days", "protocol": "as §2, §3"}, "[10]": {"tested_on": "non-DPP proteins (other serine hydrolase activity)", "assay": "Specificity of IT: fp-PEG-Tamra labeling of non-DPP serine hydrolases in prostate cancer cell lysates", "type": "biochemical, human", "details": "soluble fractions of LNCaP, DU-145, PC-3, 100 TM IT", "protocol": "(§4) . Each lysate was pre-incubated with 100 TM IT for 20 min at RT. Residual DPP-like activity was evaluated by treatment with 2 TM fp-PEG-Tamma, as described above, followed by resolution with 10% SDS-PAGE and comparison to samples not treated with IT. Inhibition of DPP activity was quantified by measuring the fluorescence intensity of the conjugate between fp-PEG-TAMRA and the DPP. The activity of a non-DPP enzyme was used to standardize the specific effects if IT.\n(§5) One member of this family, DPP-IV, has been investigated as a target in type II diabetes. As a result of those investigations, several peptidic antagonists of DPP IV have been synthesized (Pederson et al., Diabetes 47:1253-58; 1998; Pauly et al., Metabolism 48(3):385-389, 1999). […]. The sensitivity of enzyme activity to IT was tested in the soluble fractions of the LNCaP, DU-145, and PC-3 prostate cancer cells lines. Each lysate was pre-incubated with 100 TM IT for 20 min at RT. Residual DPP-like activity was evaluated by the addition of 2 TM fp-PEG-Tamra, followed by resolution with 10% SDS-PAGE and comparison to the non-treated samples. […]. […] Specific labeling was determined by comparison to preheated controls.\nIn each of the three prostate cancer cell lines, a novel protein with homology to DPP was identified using MS/MS. […]"}, "[11]": {"tested_on": "DPP-like activity in LNCaP soluble fraction", "assay": "Inhibition of DPP-like activity with isoleucine thiozolidide, fp-PEG-Tamra labeling, LNCaP soluble fraction", "type": "biochemical, human", "details": "for Reaction of fp-PEG-Tamra probe with DPP-like protein (words): LNCaP lysate preincubated with IT, 97 kDa band", "protocol": "as §4, §5\nIn each of the three prostate cancer cell lines, a novel protein with homology to DPP was identified using MS/MS. The similarity to DPP was based on fold and function assignment of the corresponding cDNA and its cognate protein (Zhang et al., Prot. Sci. 8:1104-1115, 1999). […]."}, "[12]": {"tested_on": "tumor growth", "details": "cited from earlier work"}, "[13]": {"details": "listed as isoleucine thiazolidide"}},
  "note": "Entries after “also recorded” stand apart in the source; their conditions may differ.",
  "data": [
    {"smiles": "C=C1C(=O)OC(CCCCCCCC)C1C(=O)O", "note": "(centres unmarked) [Compound C75]", "values": [
      {"measurement": "Cytotoxicity to cancer cells", "setting": "[1]", "value": "cytotoxic"},
      {"measurement": "Apoptosis of tumor cells", "setting": "[1]", "value": "in some cases induce apoptosis"}
    ]},
    {"smiles": "C[C@]12CCC(=O)C[C@@H]1CC[C@@H]1[C@@H]2CC[C@]2(C)[C@@H](O)CC[C@@H]12", "note": "[DHT]", "values": [
      {"measurement": "Change of NAPH mRNA level", "setting": "[2]", "value": "slightly greater than two-fold"},
      {"measurement": "Change of NAPH activity", "setting": "[3]", "value": "dramatic drop"},
      {"measurement": "Change of FAS activity", "setting": "[4]; 0.1 nM DHT", "value": "increased three-fold to five-fold"},
      {"measurement": "Change of FAS activity", "setting": "[4]; 100 nM DHT", "value": "increased"},
      {"measurement": "Change of PSA mRNA level", "setting": "[5]; 0.1 nM DHT, six days", "value": "increased over eleven-fold"},
      {"measurement": "Change of PSA mRNA level", "setting": "[5]; 100 nM DHT", "value": "large increase"},
      {"measurement": "Change of PEP mRNA level", "setting": "[6]", "value": "increased"},
      {"measurement": "LNCaP cell proliferation", "setting": "[7]; 0.1 nM DHT", "value": "promoted cell proliferation"},
      {"measurement": "LNCaP cell proliferation", "setting": "[7]; 100 nM DHT", "value": "cell proliferation was inhibited"},
      {"measurement": "Change of PSA activity", "setting": "[8]; 0.1 nM DHT", "value": "no noticeable change"},
      {"measurement": "Change of PSA activity", "setting": "[8]; 100 nM DHT", "value": "increased"},
      {"measurement": "Change of PEP activity", "setting": "[9]; 0.1 nM DHT", "value": "decreased"},
      {"measurement": "Change of PEP activity", "setting": "[9]; 100 nM DHT", "value": "dramatic drop"}
    ]},
    {"smiles": "CC[C@H](C)[C@H](N)C(=O)N1CCSC1", "note": "[IT, isoleucine thiazolidide]", "values": [
      {"measurement": "Inhibition of non-DPP proteins / other serine hydrolase activity", "setting": "[10]", "value": "No inhibition; also recorded: no other serine hydrolase activity was reduced"},
      {"measurement": "Inhibition of non-DPP proteins / other serine hydrolase activity", "setting": "[10]; [13]", "value": "No other enzyme activities were inhibited"},
      {"measurement": "Reaction of fp-PEG-Tamra probe with DPP-like protein (words)", "setting": "[11]", "value": "inhibited"},
      {"measurement": "Reaction of fp-PEG-Tamra probe with DPP-like protein (words)", "setting": "[11]; [13]", "value": "dramatically reduced"},
      {"measurement": "DPP-like activity inhibited", "setting": "[11]; LNCaP soluble fraction, pre-incubated with 100 TM IT 20 min RT, 2 TM fp-PEG-Tamra", "value": 63, "unit": "%"}
    ]},
    {"smiles": "C/C=C/C/C=C/CCC(=O)[C@H]1O[C@H]1C(N)=O", "note": "[cerulenin]", "values": [
      {"measurement": "Tumor growth in nude mice", "setting": "[12]", "value": "inhibit tumor growth"},
      {"measurement": "Cytotoxicity to cancer cells", "setting": "[1]", "value": "cytotoxic"},
      {"measurement": "Apoptosis of tumor cells", "setting": "[1]", "value": "induces apoptosis; also recorded: in some cases induce apoptosis"}
    ]}
  ]
}
